Measured values taken from patent publication US11903908B2, “Methods of administering amantadine” (Adamas Pharma, LLC, priority 2013, dated 2024).
Counter-ions that a name gives are not always drawn. Like-named read-outs stand apart in the source and are kept apart here.

Key:
[1] = system: PD patients with levodopa-induced dyskinesia (LID); settings: cited from earlier work
[2] = system: subjects with Parkinson's Disease (PD) who have levodopa-induced dyskinesia (LID); assay: Randomized, double-blind, placebo-controlled study of Amantadine ER capsules for levodopa-induced dyskinesia in Parkinson's Disease (Example 5)
From the text: Study Objectives: This study was designed to evaluate the efficacy of three dose levels of Amantadine Extended Release (ER) oral capsules dosed once nightly at nighttime for the treatment of levodopa-induced dyskinesia (LID) in subjects with Parkinson's Disease (PD). […] Study design: This was a multi-center, randomized, double-blind, placebo-controlled, 4-arm parallel group study of Amantadine ER in subjects with PD who have LID.
Subjects who were randomized to Treatment C received, in double-blind fashion, 260 mg Amantadine ER once nightly during week 1, with an increase to 340 mg once nightly at the beginning of week 2. Subjects who were randomized to Treatment D, in double-blind fashion, 260 mg Amantadine ER once nightly during week 1, with an increase to 340 mg Amantadine ER once nightly during week 2, with a further increase to 420 mg once nightly at the beginning of week 3. Dosing for all groups continued at the nominal dose through week 8.
Following completion of the baseline visit and randomization, subjects returned to the clinic after 1, 2, 4, 6, and 8 weeks of dosing, with a follow-up visit 14 days following the last dose of study drug. Study visits and assessments were scheduled during the hours between 10 am through 4 pm. A set of two 24-hour diaries were be completed during 48 hours prior to randomization and 48 hours prior to selected study visits. The diary was used to score five different conditions in 30-minute intervals: Sleep, OFF, ON without dyskinesias, ON with nontroublesome dyskinesias, ON with troublesome dyskinesias.
Blood samples were collected at selected study visits for determination of amantadine plasma concentrations, and evaluation of steady-state population pharmacokinetics. Subject participation during the study was up to 12 weeks including a 2-week (maximum) screening period, 8-week (maximum) treatment period, and a 2-week follow-up period. Subjects unable to tolerate their assigned study drug assignment permanently discontinued study drug and continued to be followed for safety through 2 weeks following the last dose of study drug. […]

[3] = amantadine IR 200 mg/day, PD patients

- discontinuation rates ([2]; 420 mg once nightly): higher discontinuation rates
Compound: NC12CC3CC(CC(C3)C1)C2 [amantadine, Amantadine HCl]
- reduction in LID [1, 3]: approximately 25%
- tolerability [1, 3]: generally tolerated by the majority of PD patients
- CNS side effects ([1]; amantadine IR 300 mg/day or higher): associated with central nervous system (CNS) side effects
- reduction of LID ([1]; amantadine IR 300 mg/day, PD patients): ~40%
- reduction of LID ([1]; amantadine IR 300 to 400 mg/day, one study): ~60%
- effect on motor fluctuations (ON/OFF) ([1]; later stages of PD): no effect
- frequency of side effects ([2]; 420 mg once nightly): comparable frequency of side effects
- tolerability ([2]; 260-420 mg once nightly, Parkinson's disease patients): well tolerated
